Laboratory results: patent publication US10233184B2, “7-substituted sulfonimidoylpurinone compounds and derivatives for the treatment and prophylaxis of virus infection” (Hoffmann-La Roche Inc., priority 2016, dated 2019)
In brackets after ≈: the same amount, converted by molar mass.

Columns and labels:
LYSA solubility study = format: physicochemical; details: phosphate buffer, pH 6.5, aqueous buffer, thermodynamic from solid, 0.05M phosphate buffer pH 6.5, read-out: LYSA of Prodrugs
Description: LYSA study is used to determine the aqueous solubility of tested compounds. Samples were prepared in duplicate from 10 mM DMSO stock solution. After evaporation of DMSO with a centrifugal vacuum evaporator, the compounds were dissolved in 0.05M phosphate buffer (pH 6.5), stirred for one hour and shaken for two hours. After one night, the solutions were filtered using a microtiter filter plate. Then the filtrate and its 1/10 dilution were analyzed by HPLC-UV. […] The results were in μg/mL. In case the percentage of sample measured in solution after evaporation divided by the calculated maximum of sample amount was bigger than 80%, the solubility was reported as bigger than this value.

human TLR7 = target: T1, human TLR7 (Homo sapiens, UniProt Q9NYK1); assay: HEK293-Blue-hTLR-7 cells assay (SEAP reporter); format: cell-based; details: for Ratio (EC50(prodrug)/EC50(active form)): EC50 of prodrug over EC50 of corresponding active form; for EC50: HEK293-Blue-hTLR-7 cells, SEAP reporter, 20 hrs, prodrug, read-out: HEK293-hTLR-7 EC50 (Prodrug)
T1 sequence (Q9NYK1 27-1049): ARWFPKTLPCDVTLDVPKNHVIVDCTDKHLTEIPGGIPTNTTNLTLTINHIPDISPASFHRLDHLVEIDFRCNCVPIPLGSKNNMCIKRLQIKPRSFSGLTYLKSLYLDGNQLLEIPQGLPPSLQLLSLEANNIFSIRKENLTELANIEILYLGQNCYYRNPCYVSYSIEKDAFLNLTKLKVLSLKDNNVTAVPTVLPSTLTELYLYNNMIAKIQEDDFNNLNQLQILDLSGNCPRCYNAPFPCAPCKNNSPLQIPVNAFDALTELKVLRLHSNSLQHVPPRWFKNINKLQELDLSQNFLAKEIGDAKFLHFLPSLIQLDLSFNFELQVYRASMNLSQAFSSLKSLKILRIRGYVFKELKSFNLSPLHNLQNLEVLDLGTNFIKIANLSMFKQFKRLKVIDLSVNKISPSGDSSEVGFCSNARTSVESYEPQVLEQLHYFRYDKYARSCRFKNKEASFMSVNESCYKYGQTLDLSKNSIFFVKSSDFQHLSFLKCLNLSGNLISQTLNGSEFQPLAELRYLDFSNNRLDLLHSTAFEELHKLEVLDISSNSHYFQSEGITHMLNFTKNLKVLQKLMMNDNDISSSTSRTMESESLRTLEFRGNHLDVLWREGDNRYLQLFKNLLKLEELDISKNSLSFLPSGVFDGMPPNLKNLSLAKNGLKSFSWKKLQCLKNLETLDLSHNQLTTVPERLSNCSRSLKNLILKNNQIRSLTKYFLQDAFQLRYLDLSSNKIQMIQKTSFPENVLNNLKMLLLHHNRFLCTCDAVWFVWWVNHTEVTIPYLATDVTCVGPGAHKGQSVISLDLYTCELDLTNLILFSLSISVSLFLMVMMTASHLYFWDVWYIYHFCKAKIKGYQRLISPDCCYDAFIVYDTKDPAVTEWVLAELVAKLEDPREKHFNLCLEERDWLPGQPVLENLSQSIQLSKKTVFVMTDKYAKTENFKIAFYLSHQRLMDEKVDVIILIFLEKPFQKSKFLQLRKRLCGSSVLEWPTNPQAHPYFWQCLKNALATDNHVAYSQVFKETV
Description: HEK293-Blue-hTLR-7 Cells Assay:
A stable HEK293-Blue-hTLR-7 cell line was purchased from InvivoGen (Cat.#: hkb-htlr7, San Diego, Calif., USA). These cells were designed for studying the stimulation of human TLR7 by monitoring the activation of NF-κB. A SEAP (secreted embryonic alkaline phosphatase) reporter gene was placed under the control of the IFN-β minimal promoter fused to five NF-κB and AP-1-binding sites. The SEAP was induced by activating NF-κB and AP-1 via stimulating HEK-Blue hTLR7 cells with TLR7 ligands. Therefore the reporter expression was regulated by the NF-κB promoter upon stimulation of human TLR7 for 20 hrs. The cell culture supernatant SEAP reporter activity was determined using QUANTI-Blue™ kit (Cat.#: rep-qbl, Invivogen, San Diego, Calif., USA) at a wavelength of 640 nm, a detection medium that turns purple or blue in the presence of alkaline phosphatase.
HEK293-Blue-hTLR7 cells were incubated at a density of 250,000˜450,000 cells/mL in a volume of 180 μL in a 96-well plate in Dulbecco's Modified Eagle's medium (DMEM) containing 4.5 g/L glucose, 50 U/mL penicillin, […], […], 2 mM L-glutamine, 10% (V/V) heat-inactivated fetal bovine serum for 24 hrs. Then the HEK293-Blue-hTLR-7 cells were incubated with addition of 20 μL test compound in a serial dilution in the presence of final DMSO at 1% and perform incubation under 37° C. in a CO2 incubator for 20 hrs. Then 20 μL of the supernatant from each well was incubated with 180 μL Quanti-blue substrate solution at 37° C. for 2 hrs and the absorbance was read at 620˜655 nm using a spectrophotometer. The signalling pathway that TLR7 activation leads to downstream NF-κB activation has been widely accepted, and therefore similar reporter assay was also widely used for evaluating TLR7 agonist (Tsuneyasu Kaisho and Takashi Tanaka, Trends in Immunology, Volume 29, Issue 7, July 2008, […]; Hiroaki Hemmi et al, Nature Immunology 3, 196-200 (2002)).
The Compounds and Examples of the present invention were tested in HEK293-hTLR-7 assay for their TLR7 agonism activity as described herein and results are listed in Table 1. […] The calculated ratio of EC50(prodrug)/EC50(active form) were within the range from 32 to about 7600.

SMILES	solubility thermodynamic (LYSA solubility study) [mg/mL]	Ratio (EC50(prodrug)/EC50(active form)) (human TLR7)	EC50 (human TLR7) [µM]
CCCS(=N)(=O)c1nc(N)c2c(n1)n(Cc1ccccc1)c(=O)n2C(=O)N(C)C(C)C (centres unmarked) [Example 10, 6-Amino-9-benzyl-N-isopropyl-N-methyl-8-oxo-2-(propylsulfonimidoyl)purine-7-carboxamide]	0.12 (≈ 269 µM)	1053.8	68.5
CCCS(=N)(=O)c1nc(N)c2c(n1)n(Cc1ccccc1)c(=O)n2C(=O)N(C)CCCOC (centres unmarked) [Example 12, 6-Amino-9-benzyl-N-(3-methoxypropyl)-N-methyl-8-oxo-2-(propylsulfonimidoyl)purine-7-carboxamide]	0.12 (≈ 252 µM)	675.4	43.9
CCCS(=N)(=O)c1nc(N)c2c(n1)n(Cc1ccccc1)c(=O)n2C(=O)N(C)CC(C)C (centres unmarked) [Example 13, 6-Amino-9-benzyl-N-isobutyl-N-methyl-8-oxo-2-(propylsulfonimidoyl)purine-7-carboxamide]	0.155 (≈ 337 µM)	1030.8	67
CCCS(=N)(=O)c1nc(N)c2c(n1)n(Cc1ccccc1)c(=O)n2C(=O)N(C)CCC(=O)OCC (centres unmarked) [Example 15, Ethyl 3-[[6-amino-9-benzyl-8-oxo-2-(propylsulfonimidoyl)purine-7-carbonyl]-methyl-amino]propanoate]	0.405 (≈ 804 µM)	7600	494
CCCS(=N)(=O)c1nc(N)c2c(n1)n(Cc1ccccc1)c(=O)n2C(=O)N(C)CCC(=O)OC(C)(C)C (centres unmarked) [Example 16, tert-Butyl 3-[[6-amino-9-benzyl-8-oxo-2-(propylsulfonimidoyl)purine-7-carbonyl]-methyl-amino]propanoate]	0.205 (≈ 386 µM)	493.8	32.1
CCCS(=N)(=O)c1nc(N)c2c(n1)n(Cc1ccccc1)c(=O)n2C(=O)N(C)CCN(C)C(C)=O (centres unmarked) [Example 25, N-[2-[Acetyl(methyl)amino]ethyl]-6-amino-9-benzyl-N-methyl-8-oxo-2-(propylsulfonimidoyl)purine-7-carboxamide]	> 0.67	372.3	24.2
CCCS(=N)(=O)c1nc(N)c2c(n1)n(Cc1ccccc1)c(=O)n2C(=O)N(C)CCN(C)C(=O)OC (centres unmarked) [Example 26, Methyl N-[2-[[6-amino-9-benzyl-8-oxo-2-(propylsulfonimidoyl)purine-7-carbonyl]-methyl-amino]ethyl]-N-methyl-carbamate]	> 0.69	206.2	13.4
CCCS(=N)(=O)c1nc(N)c2c(n1)n(Cc1ccccc1)c(=O)n2C(=O)N(C)CCN(C)C(=O)OC(C)(C)C (centres unmarked) [Example 27, tert-Butyl N-[2-[[6-amino-9-benzyl-8-oxo-2-(propylsulfonimidoyl)purine-7-carbonyl]-methyl-amino]ethyl]-N-methyl-carbamate]	> 0.38		31.7

Stronger by EC50 (human TLR7), values ahead:

solubility thermodynamic (LYSA solubility study) [mg/mL]	Ratio (EC50(prodrug)/EC50(active form)) (human TLR7)	EC50 (human TLR7) [µM]	SMILES
> 0.618	86.2	5.6	CCCS(=N)(=O)c1nc(N)c2c(n1)n(Cc1ccccc1)c(=O)n2C(=O)N1CCN(C)CC1 (centres unmarked) [Example 11, 6-Amino-9-benzyl-7-(4-methylpiperazine-1-carbonyl)-2-(propylsulfonimidoyl)purin-8-one]
0.225 (≈ 460 µM)	36.9	2.4	CCCS(=N)(=O)c1nc(N)c2c(n1)n(Cc1ccccc1)c(=O)n2C(=O)N(C)CC(=O)OCC (centres unmarked) [Example 14, Ethyl 2-[[6-amino-9-benzyl-8-oxo-2-(propylsulfonimidoyl)purine-7-carbonyl]-methyl-amino]acetate]
0.695 (≈ 1300 µM)	106.2	6.9	CCCS(=N)(=O)c1nc(N)c2c(n1)n(Cc1ccccc1)c(=O)n2C(=O)N(C)CCN(C)C(=O)OCC (centres unmarked) [Example 28, Ethyl N-[2-[[6-amino-9-benzyl-8-oxo-2-(propylsulfonimidoyl)purine-7-carbonyl]-methyl-amino]ethyl]-N-methyl-carbamate]
